The source of these data is ChEMBL document CHEMBL1909046, “DrugMatrix in vitro pharmacology data”.

Molecules are shown by their SMILES.

The nature of assay [1]: DRUGMATRIX: Glutamate, NMDA, Phencyclidine radioligand binding (ligand: [3H] TCP). It is filed as cell membranes, Rattus norvegicus, Wistar, Cerebral cortex, Membrane. The note with it: Not Active = under 50% inhibition at 10 µM.
Assay [2] deals with Aldo-keto reductase family 1 member B1 (Rattus norvegicus, UniProt P07943). Briefly: biochemical. Format: tissue-based, Lens of camera-type eye.
Assay [3] deals with C-C chemokine receptor type 2 (Homo sapiens, UniProt P41597). Format: cell membranes, CHO-K1, Membrane.
Sequence of C-C chemokine receptor type 2 (P41597 whole entry): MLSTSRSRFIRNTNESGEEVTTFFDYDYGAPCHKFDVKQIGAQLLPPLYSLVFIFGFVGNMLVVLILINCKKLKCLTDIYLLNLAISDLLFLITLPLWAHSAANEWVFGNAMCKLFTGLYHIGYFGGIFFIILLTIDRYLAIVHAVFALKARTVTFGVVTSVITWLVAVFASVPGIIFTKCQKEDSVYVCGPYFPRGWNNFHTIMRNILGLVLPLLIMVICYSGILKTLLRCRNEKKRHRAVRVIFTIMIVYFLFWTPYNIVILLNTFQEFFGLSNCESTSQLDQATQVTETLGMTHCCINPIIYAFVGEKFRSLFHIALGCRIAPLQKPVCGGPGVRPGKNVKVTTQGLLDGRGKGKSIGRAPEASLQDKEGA
Assay [4] is described as follows: DRUGMATRIX: Potassium Channel [KATP] radioligand binding (ligand: [3H] Glyburide). It is filed as cell membranes, Membrane. Particulars: hit-t15; Not Active = under 50% inhibition at 10 µM.
The target of assay [5] is T1, Alpha-2C adrenergic receptor (Homo sapiens, UniProt P18825).
T1 sequence (P18825 whole entry): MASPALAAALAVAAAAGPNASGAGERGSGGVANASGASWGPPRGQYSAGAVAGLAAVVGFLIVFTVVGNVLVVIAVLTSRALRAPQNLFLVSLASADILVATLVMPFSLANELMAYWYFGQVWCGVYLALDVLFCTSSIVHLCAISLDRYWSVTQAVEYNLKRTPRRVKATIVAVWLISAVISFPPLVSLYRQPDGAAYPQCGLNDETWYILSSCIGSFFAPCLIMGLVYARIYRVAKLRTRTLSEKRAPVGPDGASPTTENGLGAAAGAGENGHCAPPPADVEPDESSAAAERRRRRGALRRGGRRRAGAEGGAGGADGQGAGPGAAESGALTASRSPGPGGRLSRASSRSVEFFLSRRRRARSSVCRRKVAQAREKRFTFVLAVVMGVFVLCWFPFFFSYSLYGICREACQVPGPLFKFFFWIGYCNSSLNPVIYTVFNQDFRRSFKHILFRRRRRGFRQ
In words: DRUGMATRIX: Adrenergic Alpha-2C radioligand binding (ligand: [3H] MK-912). Format: cell membranes, Sf9, Membrane. Particulars: sf9.

In general, IC50 refers to the concentration needed to halve the response being measured. For orientation: Ki means the equilibrium dissociation constant of an inhibitor or competing ligand from its target. Turning to `Nn1nnc2ccccc21`, the IC50 entry in assay [1], in assay [2], in assay [3] (cho-k1), in assay [4] and in assay [5] was “Not Active” each time. The Ki entry in assay [1] and in assay [4] was “Not Active” each time.
Consider `CC[C@]1(O)CC[C@H]2[C@@H]3CCC4=CCCC[C@@H]4[C@H]3CC[C@@]21C`, for which the IC50 result in assay [1], in assay [2], in assay [3] (cho-k1), in assay [4] and in assay [5] was “Not Active” each time. The Ki result in assay [1] and in assay [4] was “Not Active” throughout.
Consider `N[C@@H](Cc1ccc(F)cc1)C(=O)O`, for which the IC50 result in assay [1], in assay [2], in assay [3] (cho-k1), in assay [4] and in assay [5] was “Not Active” in each case. Also, the Ki entry in assay [1] and in assay [4] was “Not Active” each time.
As for `CCOC(=O)[C@H](CCc1ccccc1)N[C@@H](C)C(=O)N1Cc2ccccc2C[C@H]1C(=O)O`, the IC50 result in assay [1], in assay [2], in assay [3] (cho-k1), in assay [4] and in assay [5] was “Not Active” each time. Besides, the Ki entry in assay [1] and in assay [4] was “Not Active” each time.
For `O=C(c1ccccc1Cl)N1CCC(Cc2ccccc2)CC1`, the IC50 result in assay [1], in assay [2], in assay [3] (cho-k1), in assay [4] and in assay [5] was “Not Active” throughout. In addition, the Ki entry in assay [1] and in assay [4] was “Not Active” each time.
For the molecule `CCOC(=O)[C@H](CCc1ccccc1)N[C@@H](C)C(=O)N1CCC[C@H]1C(=O)O`, the IC50 entry in assay [1], in assay [2], in assay [3] (cho-k1), in assay [4] and in assay [5] was “Not Active” each time. The Ki result in assay [1] and in assay [4] was “Not Active” throughout.
In the case of `Clc1cc2c(cc1Cl)Oc1cc(Cl)c(Cl)cc1O2` [2,3,7,8-TETRACHLORODIBENZO-P-DIOXIN], the IC50 result in assay [1], in assay [2], in assay [3] (cho-k1), in assay [4] and in assay [5] was “Not Active” each time. Further, the Ki entry in assay [1] and in assay [4] was “Not Active” in each case.
For `C=C1/C(=C\C=C2/CCC[C@]3(C)[C@@H]([C@H](C)CCCC(C)C)CC[C@@H]23)C[C@@H](O)C[C@@H]1O` [ALFACALCIDOL], the IC50 entry in assay [1], in assay [2], in assay [3] (cho-k1), in assay [4] and in assay [5] was “Not Active” each time. For the same molecule, the Ki entry in assay [1] and in assay [4] was “Not Active” throughout.
Consider `CCCCCC[C@H]1C(=O)O[C@H](C)[C@H](NC(=O)c2cccc(NC=O)c2O)C(=O)O[C@@H](C)[C@@H]1OC(=O)CC(C)C` [ANTIMYCIN A], for which the IC50 entry in assay [1], in assay [2], in assay [3] (cho-k1), in assay [4] and in assay [5] was “Not Active” in each case. Moreover, the Ki entry in assay [1] and in assay [4] was “Not Active” in each case.
`C[C@@H]1CC[C@H]2[C@@H](C)C(=O)O[C@@H]3O[C@@]4(C)CC[C@@H]1[C@]32OO4` [ARTEMISININ]: the IC50 result in assay [1], in assay [2], in assay [3] (cho-k1), in assay [4] and in assay [5] was “Not Active” in each case. For the same molecule, the Ki result in assay [1] and in assay [4] was “Not Active” in each case.
For the molecule `CO[C@H]1[C@@H](O)[C@H](N)[C@@H](O[C@H]2O[C@H]([C@H](C)N)CC[C@H]2N)[C@H](O)[C@@H]1N(C)C(=O)CN` [ASTROMICIN], the IC50 result in assay [1], in assay [2], in assay [3] (cho-k1), in assay [4] and in assay [5] was “Not Active” each time. Moreover, the Ki result in assay [1] and in assay [4] was “Not Active” in each case.
For the molecule `[N-]=[N+]=CC(=O)OC[C@H](N)C(=O)O` [AZASERINE], the IC50 entry in assay [1], in assay [2], in assay [3] (cho-k1), in assay [4] and in assay [5] was “Not Active” in each case. Besides, the Ki entry in assay [1] and in assay [4] was “Not Active” each time.
As to `CC[C@H]1OC(=O)[C@H](C)[C@@H](O[C@H]2C[C@@](C)(OC)[C@@H](O)[C@H](C)O2)[C@H](C)[C@@H](O[C@@H]2O[C@H](C)C[C@H](N(C)C)[C@H]2O)[C@](C)(O)C[C@@H](C)CN(C)[C@H](C)[C@@H](O)[C@]1(C)O` [AZITHROMYCIN], the IC50 result in assay [1], in assay [2], in assay [3] (cho-k1), in assay [4] and in assay [5] was “Not Active” each time. Also, the Ki entry in assay [1] and in assay [4] was “Not Active” in each case.
For the molecule `CC(C)(C)c1ccc(S(=O)(=O)/C=C/C#N)cc1` [BAY-11-7085], the IC50 entry in assay [1] was “Not Active”; in assay [2], “Not Active”; in assay [3] (read-out: IC50), 4.18 µM; in assay [4], “Not Active”; in assay [5] it was “Not Active”. Further, the results for the Ki result in assay [1], in assay [3] (read-out: Ki) and in assay [4] were “Not Active”, 1.61 µM and “Not Active”, respectively.
On to `CCc1oc2ccccc2c1C(=O)c1cc(Br)c(O)c(Br)c1` [BENZBROMARONE], for which the IC50 entry in assay [1], in assay [2], in assay [3] (cho-k1), in assay [4] and in assay [5] was “Not Active” each time. For the same molecule, the Ki result in assay [1] and in assay [4] was “Not Active” each time.
Take `CC(C)C[C@H]1C(=O)N2CCC[C@H]2[C@]2(O)O[C@](NC(=O)[C@@H]3C=C4c5cccc6[nH]c(Br)c(c56)C[C@H]4N(C)C3)(C(C)C)C(=O)N12` [BROMOCRIPTINE]: the IC50 entry in assay [1], in assay [2], in assay [3] (cho-k1) and in assay [4] was “Not Active” throughout. The Ki entry in assay [1] and in assay [4] was “Not Active” each time.
For `CN1C[C@H](C(=O)N[C@]2(C)O[C@@]3(O)[C@@H]4CCCN4C(=O)[C@H](Cc4ccccc4)N3C2=O)C[C@@H]2c3cccc4[nH]cc(c34)C[C@H]21` [DIHYDROERGOTAMINE], the IC50 entry in assay [1], in assay [2], in assay [3] (cho-k1) and in assay [4] was “Not Active” throughout. Moreover, the Ki result in assay [1] and in assay [4] was “Not Active” in each case.
In the case of `N=C(N)N/N=C/c1c(Cl)cccc1Cl` [GUANABENZ], the IC50 entry in assay [1], in assay [2], in assay [3] (cho-k1) and in assay [4] was “Not Active” each time. The Ki result in assay [1] and in assay [4] was “Not Active” each time.
With `CC[C@H](C)C(=O)O[C@H]1C[C@@H](C)C=C2C=C[C@H](C)[C@H](CC[C@@H]3C[C@@H](O)CC(=O)O3)[C@H]21` [LOVASTATIN], the IC50 result in assay [1], in assay [2], in assay [3] (cho-k1) and in assay [5] was “Not Active” each time. Further, the Ki entry in assay [1] is “Not Active”.
